According to patent publication US9718774B2, “Indole carboxamide derivatives as P2X7 receptor antagonist” (ACTELION PHARMACEUTICALS LTD, priority 2012, dated 2017):
Where a name gives a salt, the structure may show the parent alone.

Biological target: T1, human recombinant P2X7 receptor (Homo sapiens, UniProt Q99572)
T1 construct: expressed in transfected cells
T1 sequence (Q99572 1-595): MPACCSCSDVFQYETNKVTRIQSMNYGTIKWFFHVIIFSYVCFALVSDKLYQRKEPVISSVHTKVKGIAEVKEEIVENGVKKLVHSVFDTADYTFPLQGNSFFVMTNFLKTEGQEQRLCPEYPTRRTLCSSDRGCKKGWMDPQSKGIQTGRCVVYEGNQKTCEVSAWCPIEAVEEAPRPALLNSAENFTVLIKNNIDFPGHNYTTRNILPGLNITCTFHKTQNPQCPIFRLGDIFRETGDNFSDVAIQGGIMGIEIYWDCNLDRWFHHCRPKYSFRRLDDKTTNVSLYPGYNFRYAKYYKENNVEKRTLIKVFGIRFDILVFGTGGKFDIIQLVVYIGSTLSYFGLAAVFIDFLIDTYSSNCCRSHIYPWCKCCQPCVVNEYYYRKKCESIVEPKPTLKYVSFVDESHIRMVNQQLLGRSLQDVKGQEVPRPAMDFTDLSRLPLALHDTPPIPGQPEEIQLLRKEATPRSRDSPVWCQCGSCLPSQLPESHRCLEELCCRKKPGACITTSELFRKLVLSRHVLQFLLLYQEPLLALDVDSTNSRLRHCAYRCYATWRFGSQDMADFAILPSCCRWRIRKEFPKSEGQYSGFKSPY
Assay: YO-PRO assay: P2X7 receptor antagonistic activity in HEK cells stably expressing P2X7
Type: cell-based
Conditions: antagonistic activity with respect to the P2X7 receptor, read-out: IC50
Method: The P2X7 receptor antagonistic activity of the compounds of formula (I) is determined in accordance with the following experimental method.
Cell Line Generation and YO-PRO Assay
Cell line generation was performed in general according to established molecular cloning protocols. Specifically, RNA was extracted from human whole blood using the Qiagen RNeasy kit (Qiagen, CH) according to the manufacturer's instructions. Subsequently cDNA was made (Superscript II, Invitrogen AG, CH) and the human P2X7 gene (genbank ref. BC011913) was amplified with the following primers: […] and […]. The amplified sequence was subsequently ligated into a pcDNA3.1 (+) NotI, NheI digested plasmid. Human embryonic kidney (HEK) cells (ATCC CRL—1573, Manassas, Va., USA) were transfected with the pcDNA3.1 (+).hP2X7 plasmid using lipofectamine 2000 (Invitrogen AG, CH) according to the manufacturer's instructions. Following a 24 h exposure to DNA, cells were trypsinized and re-seeded at low density in the presence of 250 μg Geneticin. Geneticin resistant cells were then selected during two consecutive rounds of cloning by serial limiting dilution with visual inspection. Individual clones were screened for P2X7 expression by applying ATP and recording the resultant uptake of YO-PRO1. Specific cell clones were chosen based on RNA and protein expression. HEK cells stably expressing P2X7 were used to screen drugs using the YO-PRO1 assay. Cells were grown to confluency in adherent culture at 37° C. in a humidified 5% CO2 incubator (split 1/5 every 3-4 days with DMEM, 10% FCS, 1% Penicillin/Streptomycin, 250 μg/ml Geneticin). Adherent cells were detached by incubation with Trypsine (1 ml per 165 cm^2 dish) for 2 minutes, then washed off with 10 ml PBS (without Mg^2+ and Ca^2+), and resuspended in DMEM, 10% FCS, 1% Penicillin/Streptomycin, no Geneticin. 10′000 cells per well (48 hours before the assay) or 25′000 cells per well (Vi-cell XR (Beckman Coulter) (24 hours before the assay) in 50 μl full medium were seeded on 384-well black-wall, clear bottom plates, that were coated before with 10 μl per well Poly-L-Lysine, incubated for 30-60 minutes at 37° C. and washed once with PBS. Medium was removed from cells and 50 μl of assay buffer containing 0.5 μM YO-PRO-1 was added into the wells. Solutions of antagonist compounds were prepared by serial dilutions of a 10 mM DMSO solution of the antagonist into PBS using a BioMek (Beckman Coulter). Each concentration was performed in duplicate. For IC50 measurements 10 concentration points were measured (10 μM being the highest concentration followed by 9 serial dilution steps 1/3). The cells were incubated with the antagonists of the present invention together with ATP at a final concentration of 250 μM for 90 minutes. During this time period, four time points were taken. Each time point comprised the average of several measurements made within a few seconds. Fluorescence was measured in the FLIPR tetra (Molecular Devices) using the filters appropriate for YO-PRO-1 fluorescence (excitation 485/20, emission 530/25). The FLIPR tetra was equipped with Molecular Devices Screen Works system control software to define and run experimental protocols. […] For IC50 measurements the maximum intensity is plotted against the concentration of compound to determine IC50 values.

SMILES | IC50
O=C(NCC(c1ccnc(O)c1)N1CCCCC1)c1ccc2[nH]ccc2c1Cl (racemic) [Example 74, rac-4-Chloro-1H-indole-5-carboxylic acid [2-(2-hydroxypyridin-4-yl)-2-piperidin-1-yl-ethyl]-amide] | 193 nM
Cc1ncc(C(CNC(=O)c2ccc3[nH]ccc3c2Cl)OC2CCCC2)cn1 (racemic) [Example 52, rac-4-Chloro-1H-indole-5-carboxylic acid [2-cyclopentyloxy-2-(2-methyl-pyrimidin-5-yl)-ethyl]-amide] | 32 nM
Cn1cc(C(CNC(=O)c2ccc3[nH]ccc3c2Cl)N2CCOCC2)cn1 (racemic) [Example 28, rac-4-Chloro-1H-indole-5-carboxylic acid [2-(1-methyl-1H-pyrazol-4-yl)-2-morpholin-4-yl-ethyl]-amide] | 66 nM
CN1CCC(C(CNC(=O)c2ccc3[nH]ccc3c2Cl)c2cccnc2)CC1 (racemic) [Example 21, rac-4-Chloro-1H-indole-5-carboxylic acid [2-(1-methyl-piperidin-4-yl)-2-pyridin-3-yl-ethyl]-amide formic acid salt] | 584 nM
COc1ccc(C(CNC(=O)c2ccc3[nH]ccc3c2Cl)N2CCOCC2)cc1 (racemic) [Example 59, rac-4-Chloro-1H-indole-5-carboxylic acid [2-(4-methoxy-phenyl)-2-morpholin-4-yl-ethyl]-amide] | 55 nM
O=C(NCC(c1ccc(F)cn1)N1CCOCC1)c1ccc2[nH]ccc2c1Cl (racemic) [Example 36, rac-4-Chloro-1H-indole-5-carboxylic acid [2-(5-fluoro-pyridin-2-yl)-2-morpholin-4-yl-ethyl]-amide] | 265 nM
Cc1ncc(C(CNC(=O)c2ccc3[nH]ccc3c2Cl)NCC2CCCC2)cn1 (racemic) [Example 84, rac-4-Chloro-1H-indole-5-carboxylic acid [2-(cyclopentylmethyl-amino)-2-(2-methyl-pyrimidin-5-yl)-ethyl]-amide] | 1470 nM
Cc1cnc(C(CNC(=O)c2ccc3[nH]ccc3c2Cl)N2CCCCC2)cn1 (racemic) [Example 60, rac-4-Chloro-1H-indole-5-carboxylic acid [2-(5-methyl-pyrazin-2-yl)-2-piperidin-1-yl-ethyl]-amide] | 232 nM
O=C(NCC(c1cccnc1)N1CCOCC1)c1ccc2[nH]ccc2c1Cl (racemic) [Example 25, rac-4-Chloro-1H-indole-5-carboxylic acid (2-morpholin-4-yl-2-pyridin-3-yl-ethyl)-amide] | 32 nM
Cc1ncc(C(CNC(=O)c2ccc3[nH]ccc3c2Cl)N2CC(C)OC(C)C2)cn1 (single isomer, unassigned) [Example 41, 4-Chloro-1H-indole-5-carboxylic acid [2-(2,6-dimethyl-morpholin-4-yl)-2-(2-methyl-pyrimidin-5-yl)-ethyl]-amide] | 651 nM
Cc1ccc(C(CNC(=O)c2ccc3[nH]ccc3c2Cl)N2CCCCC2)cc1 (racemic) [Example 55, rac-4-Chloro-1H-indole-5-carboxylic acid (2-piperidin-1-yl-2-p-tolyl-ethyl)-amide] | 774 nM

Stronger by IC50, values ahead:

IC50 | SMILES
30 nM | CCc1c(C(=O)NCC(c2cnc(C)nc2)N2CCOCC2)ccc2[nH]ccc12 (racemic) [Example 101, rac-4-Ethyl-1H-indole-5-carboxylic acid [2-(2-methyl-pyrimidin-5-yl)-2-morpholin-4-yl-ethyl]-amide]
26 nM | Cc1ncc(C(CNC(=O)c2cc(C)c3[nH]ccc3c2C(F)(F)F)N2CCOCC2)cn1 (racemic) [Example 103, rac-7-Methyl-4-trifluoromethyl-1H-indole-5-carboxylic acid [2-(2-methyl-pyrimidin-5-yl)-2-morpholin-4-yl-ethyl]-amide]
20 nM | COc1cc(C(=O)NCC(c2cnc(C)nc2)N2CCOCC2)c(F)c2cc[nH]c12 (racemic) [Example 118, rac-4-Fluoro-7-methoxy-1H-indole-5-carboxylic acid [2-(2-methyl-pyrimidin-5-yl)-2-morpholin-4-yl-ethyl]-amide]
19 nM | Cc1ncc(C(CNC(=O)c2ccc3[nH]ccc3c2C)N2CCOCC2)cn1 (racemic) [Example 100, rac-4-Methyl-1H-indole-5-carboxylic acid [2-(2-methyl-pyrimidin-5-yl)-2-morpholin-4-yl-ethyl]-amide]
15 nM | CCc1cc(C(=O)NCC(c2cnc(C)nc2)N2CCOCC2)c(Cl)c2cc[nH]c12 (racemic) [Example 107, rac-4-Chloro-7-ethyl-1H-indole-5-carboxylic acid [2-(2-methyl-pyrimidin-5-yl)-2-morpholin-4-yl-ethyl]-amide]
15 nM | O=C(NCC(c1ccns1)N1CCCCC1)c1ccc2[nH]ccc2c1Cl (racemic) [Example 61, rac-4-Chloro-1H-indole-5-carboxylic acid (2-isothiazol-5-yl-2-piperidin-1-yl-ethyl)-amide]
14 nM | COc1cc(C(=O)NCC(c2cnc(C)nc2)N2CCOCC2)c(Cl)c2cc[nH]c12 (single isomer, unassigned) [Example 114, 4-Chloro-7-methoxy-1H-indole-5-carboxylic acid [2-(2-methyl-pyrimidin-5-yl)-2-morpholin-4-yl-ethyl]-amide]
13 nM | CCOc1cc(C(=O)NCC(c2cnc(C)nc2)N2CCOCC2)c(Cl)c2cc[nH]c12 (racemic) [Example 110, rac-4-Chloro-7-ethoxy-1H-indole-5-carboxylic acid [2-(2-methyl-pyrimidin-5-yl)-2-morpholin-4-yl-ethyl]-amide]
12 nM | O=C(NCC(c1cnc(C(F)(F)F)nc1)N1CCC(F)(F)CC1)c1ccc2[nH]ccc2c1Cl (racemic) [Example 8, rac-4-Chloro-1H-indole-5-carboxylic acid [2-(4,4-difluoro-piperidin-1-yl)-2-(2-trifluoromethyl-pyrimidin-5-yl)-ethyl]-amide]
8.8 nM | O=C(NCC(c1ccc(Cl)nc1)N1CCCCC1)c1ccc2[nH]ccc2c1Cl (racemic) [Example 56, rac-4-Chloro-1H-indole-5-carboxylic acid [2-(6-chloro-pyridin-3-yl)-2-piperidin-1-yl-ethyl]-amide]
7.9 nM | Cc1ncc(C(CNC(=O)c2ccc3[nH]ccc3c2Cl)N2CCOCC2)cn1 (single isomer, unassigned) [Example 3, 4-Chloro-1H-indole-5-carboxylic acid [2-(2-methyl-pyrimidin-5-yl)-2-morpholin-4-yl-ethyl]-amide]
7.7 nM | O=C(NCC(c1cnc(C2CC2)nc1)N1CCOCC1)c1ccc2[nH]ccc2c1Cl (racemic) [Example 9, rac-4-Chloro-1H-indole-5-carboxylic acid [2-(2-cyclopropyl-pyrimidin-5-yl)-2-morpholin-4-yl-ethyl]-amide]
4.3 nM | O=C(NCC(c1ccc(Cl)nc1)N1CCC(F)(F)CC1)c1ccc2[nH]ccc2c1Cl (racemic) [Example 2, rac-4-Chloro-1H-indole-5-carboxylic acid [2-(6-chloro-pyridin-3-yl)-2-(4,4-difluoro-piperidin-1-yl)-ethyl]-amide]
